The supplement of paper PMC13380429

How the values were obtained:
U2OS [1] = assay: drug sensitivity score (DSS) for viability; higher = more toxic; extreme values may be limits of the assay; conditions: 72 h
Caco-2 [2] = assay: as above; conditions: 72 h
Calu-3 [3] = assay: as above; conditions: 72 h
HepG2 [4] = assay: as above; conditions: 72 h
Vero E6 [5] = assay: as above; conditions: 72 h
[6] = test system: A549-ACE2 infected with SARS-CoV-2; assay: cell count relative to DMSO; higher = less toxic; conditions: 24 h
U2OS [7] = assay: cell viability relative to DMSO; higher = less toxic; conditions: 72 h
Caco-2 [8] = assay: as above; conditions: 72 h
Calu-3 [9] = assay: as above; conditions: 72 h
HepG2 [10] = assay: as above; conditions: 72 h
Vero E6 [11] = assay: as above; conditions: 72 h
U2OS [12] = assay: relative viability EC50 (midpoint between 100% and the lowest measured viability); higher = less toxic; conditions: 72 h
Caco-2 [13] = assay: as above; conditions: 72 h
Calu-3 [14] = assay: as above; conditions: 72 h
HepG2 [15] = assay: as above; conditions: 72 h
Vero E6 [16] = assay: as above; conditions: 72 h
[17] = test system: A549-ACE2 infected with SARS-CoV-2; assay: SARS-CoV-2 infection rate relative to DMSO; higher = more infection; conditions: 24 h
[18] = test system: A549-ACE2 infected with SARS-CoV-2; assay: morphology score (similarity to uninfected cells); higher = more like uninfected cells; conditions: 24 h
A549-ACE2 [19] = assay: drug-induced phospholipidosis relative to tamoxifen; higher = more phospholipidosis
A549-ACE2 [20] = assay: phospholipidosis EC50; higher = less potent phospholipidosis inducer

CCc1cc2cc(OC)c(OC)cc2c(Cc2ccccc2)n1 [moxaverine]
Conditions | drug sensitivity score | relative viability EC50 [µM]
Caco-2 [2] | 0 | –
Caco-2 [13] | – | > 10
Calu-3 [3] | 0 | –
Calu-3 [14] | – | > 10
HepG2 [4] | 0 | –
HepG2 [15] | – | > 10
U2OS [1] | 0 | –
U2OS [12] | – | > 10
Vero E6 [5] | 0 | –
Vero E6 [16] | – | > 10

Conditions | SARS-CoV-2 infection rate, [17] [%] | cell count, [6] [%] | cell viability, Caco-2 [8] [%] | cell viability, Calu-3 [9] [%] | cell viability, HepG2 [10] [%] | cell viability, U2OS [7] [%] | cell viability, Vero E6 [11] [%] | morphology score, [18]
1 nM | – | – | 89 | 95.7 | 101 | 101 | 96.5 | –
10 nM | – | – | 85.6 | 92.5 | 104 | 95.1 | 95.4 | –
100 nM | – | – | 104 | 95.9 | 98.5 | 99.6 | 92.2 | –
0.3 µM | 104 | 99 | – | – | – | – | – | -0.15
1000 nM | – | – | 90.9 | 96 | 103 | 95.5 | 95 | –
3 µM | 95 | 103 | – | – | – | – | – | 0.3
10 µM | 71 | 106 | – | – | – | – | – | 0.51
10000 nM | – | – | 105 | 100 | 106 | 96.8 | 107 | –
30 µM | 52 | 109 | – | – | – | – | – | 0.66

drug-induced phospholipidosis [%], A549-ACE2 [19]
Conditions | 0.3 µM | 0.833333 µM | 3.33333 µM | 6.66667 µM | 10 µM | 30 µM
24 h | 1.12 | 1.68 | 0.22 | 1.38 | 2.55 | 6.92
48 h | 3.81 | 1.7 | 2.59 | 3.75 | 3.82 | 13.6
72 h | 4.52 | 0.631 | 3.05 | 3.57 | 2.15 | 15.7

CN(C)C[C@H](O)Cn1c2ccc(Br)cc2c2cc(Br)ccc21 (racemic) [wiskostatin]
Conditions | drug sensitivity score | relative viability EC50 [µM]
Caco-2 [2] | 3.9 | –
Caco-2 [13] | – | 2.85
Calu-3 [3] | 4 | –
Calu-3 [14] | – | 3.47
HepG2 [4] | 3.5 | –
HepG2 [15] | – | 3.62
U2OS [1] | 1.4 | –
Vero E6 [5] | 2.7 | –
Vero E6 [16] | – | 3.2

Conditions | SARS-CoV-2 infection rate [%] | cell count [%] | cell viability [%] | morphology score | phospholipidosis EC50 [µM]
A549-ACE2 [20], 24 h | – | – | – | – | 2.73
A549-ACE2 [20], 48 h | – | – | – | – | 3.44
A549-ACE2 [20], 72 h | – | – | – | – | 4.3
Caco-2 [8], 1 nM | – | – | 103 | – | –
Caco-2 [8], 10 nM | – | – | 105 | – | –
Caco-2 [8], 100 nM | – | – | 100 | – | –
Caco-2 [8], 1000 nM | – | – | 97.2 | – | –
Caco-2 [8], 10000 nM | – | – | 35 | – | –
Calu-3 [9], 1 nM | – | – | 110 | – | –
Calu-3 [9], 10 nM | – | – | 95.4 | – | –
Calu-3 [9], 100 nM | – | – | 123 | – | –
Calu-3 [9], 1000 nM | – | – | 104 | – | –
Calu-3 [9], 10000 nM | – | – | 20.7 | – | –
HepG2 [10], 1 nM | – | – | 108 | – | –
HepG2 [10], 10 nM | – | – | 105 | – | –
HepG2 [10], 100 nM | – | – | 107 | – | –
HepG2 [10], 1000 nM | – | – | 107 | – | –
HepG2 [10], 10000 nM | – | – | 27.2 | – | –
U2OS [7], 1 nM | – | – | 103 | – | –
U2OS [7], 10 nM | – | – | 98.8 | – | –
U2OS [7], 100 nM | – | – | 104 | – | –
U2OS [7], 1000 nM | – | – | 99.4 | – | –
U2OS [7], 10000 nM | – | – | 70.1 | – | –
Vero E6 [11], 1 nM | – | – | 110 | – | –
Vero E6 [11], 10 nM | – | – | 110 | – | –
Vero E6 [11], 100 nM | – | – | 106 | – | –
Vero E6 [11], 1000 nM | – | – | 100 | – | –
Vero E6 [11], 10000 nM | – | – | 48.2 | – | –
[6], 0.1 µM | – | 102 | – | – | –
[6], 0.3 µM | – | 100 | – | – | –
[6], 1 µM | – | 104 | – | – | –
[6], 3 µM | – | 119 | – | – | –
[17], 0.1 µM | 107 | – | – | – | –
[17], 0.3 µM | 98 | – | – | – | –
[17], 1 µM | 87 | – | – | – | –
[17], 3 µM | 46 | – | – | – | –
[18], 0.1 µM | – | – | – | 0.02 | –
[18], 0.3 µM | – | – | – | 0.05 | –
[18], 1 µM | – | – | – | 0.24 | –
[18], 3 µM | – | – | – | 0.74 | –

drug-induced phospholipidosis [%], A549-ACE2 [19]
Conditions | 0.3 µM | 0.833333 µM | 3.33333 µM | 6.66667 µM | 10 µM
24 h | 5.24 | 11.9 | 79.4 | 108 | 120
48 h | 4.43 | 7.26 | 89.6 | 176 | 184
72 h | 2.67 | 8.55 | 92.3 | 196 | 231

COc1cc(C[C@H]2c3cc(OC)c(OC)cc3CCN2C)c(Oc2cc3c(cc2OC)-c2c(OC)c(OC)cc4c2[C@H](C3)N(C)CC4)cc1OC [thaliblastine]
Conditions | drug sensitivity score | relative viability EC50 [µM]
Caco-2 [2] | 0.1 | –
Caco-2 [13] | – | > 10
Calu-3 [3] | 6.2 | –
Calu-3 [14] | – | 2.18
HepG2 [4] | 1.5 | –
U2OS [1] | 0.8 | –
U2OS [12] | – | > 10
Vero E6 [5] | 0 | –
Vero E6 [16] | – | > 10

Conditions | SARS-CoV-2 infection rate [%] | cell count [%] | cell viability [%] | morphology score | phospholipidosis EC50 [µM]
A549-ACE2 [20], 24 h | – | – | – | – | 1.3
A549-ACE2 [20], 48 h | – | – | – | – | 2.7
A549-ACE2 [20], 72 h | – | – | – | – | 6.76
Caco-2 [8], 1 nM | – | – | 88.3 | – | –
Caco-2 [8], 10 nM | – | – | 93.6 | – | –
Caco-2 [8], 100 nM | – | – | 104 | – | –
Caco-2 [8], 1000 nM | – | – | 102 | – | –
Caco-2 [8], 10000 nM | – | – | 86 | – | –
Calu-3 [9], 1 nM | – | – | 102 | – | –
Calu-3 [9], 10 nM | – | – | 109 | – | –
Calu-3 [9], 100 nM | – | – | 97.1 | – | –
Calu-3 [9], 1000 nM | – | – | 90.2 | – | –
Calu-3 [9], 10000 nM | – | – | 18.2 | – | –
HepG2 [10], 1 nM | – | – | 92.4 | – | –
HepG2 [10], 10 nM | – | – | 111 | – | –
HepG2 [10], 100 nM | – | – | 96.3 | – | –
HepG2 [10], 1000 nM | – | – | 105 | – | –
HepG2 [10], 10000 nM | – | – | 62 | – | –
U2OS [7], 1 nM | – | – | 94.4 | – | –
U2OS [7], 10 nM | – | – | 93.9 | – | –
U2OS [7], 100 nM | – | – | 100 | – | –
U2OS [7], 1000 nM | – | – | 96.6 | – | –
U2OS [7], 10000 nM | – | – | 83 | – | –
Vero E6 [11], 1 nM | – | – | 90.6 | – | –
Vero E6 [11], 10 nM | – | – | 100 | – | –
Vero E6 [11], 100 nM | – | – | 89.8 | – | –
Vero E6 [11], 1000 nM | – | – | 102 | – | –
Vero E6 [11], 10000 nM | – | – | 96.6 | – | –
[6], 0.3 µM | – | 109 | – | – | –
[6], 3 µM | – | 120 | – | – | –
[6], 10 µM | – | 122 | – | – | –
[6], 30 µM | – | 115 | – | – | –
[17], 0.3 µM | 95 | – | – | – | –
[17], 3 µM | 28 | – | – | – | –
[17], 10 µM | 21 | – | – | – | –
[17], 30 µM | 34 | – | – | – | –
[18], 0.3 µM | – | – | – | 0.32 | –
[18], 3 µM | – | – | – | 0.61 | –
[18], 10 µM | – | – | – | 0.29 | –
[18], 30 µM | – | – | – | -0.02 | –

drug-induced phospholipidosis [%], A549-ACE2 [19]
Conditions | 0.3 µM | 0.833333 µM | 3.33333 µM | 6.66667 µM | 10 µM | 30 µM
24 h | 9.75 | 20.6 | 72.4 | 86.2 | 80.5 | 65.6
48 h | 11.1 | 12.9 | 77.4 | 95.4 | 104 | 120
72 h | 10.4 | 12.7 | 67.9 | 103 | 105 | 154
